Test results taken from publication PMC8039949, “A novel small-molecule PROTAC selectively promotes tau clearance to improve cognitive functions in Alzheimer-like models” (Theranostics, 2021).

System: hTau transgenic mice
Assay: Multiple-doses subcutaneous administration in hTau transgenic mice, behavior and dendritic morphology
Format: in vivo, mouse
Details: 12 m-old hTau transgenic mice, subcutaneous 3 mg/kg once every 6 days, 5 times
Method: The Open field (OF) test was consisted of a 5 min session in a quadrate chamber (white opaque plastic). The chamber was divided into 16 square regions, a central field (center 4 square regions) and a periphery field. Each mouse was placed in the same position at the start of the test. Behaviors were recorded and analyzed by the video tracking system (Chengdu Taimeng Software Co., Ltd, China).
For novel object recognition (NOR) test, the mice were habituated to a quadrate chamber (white opaque plastic) for 5 min without objects 24 h prior to the test. The chamber was cleaned with 75% ethanol between each habituation period. The day after the mice re-entered the chamber from the same starting point and were given 10 min to familiarize themselves with the object A and object B. After each period the chamber and objects were cleaned with 75% ethanol. The next day after the familiarization period, object B was replaced with noval object C, and the mice were given 10 min to explore both objects. The exploring time in object A (TA) and C (TC) was recorded using the video tracking system. The discrimination index was calculated by (TC-TA)/(TA+TC).
The Elevated plus maze (EPM) test was performed as follows: mice were placed at the junction of the four arms of the maze (white opaque plastic), and started the test from facing an open arm. The chambers were cleaned with 75% ethanol before the next mouse was trained. The entries and duration time in each arm were recorded for 5 min by the video tracking system (Chengdu Taimeng Software Co., Ltd, China). An increase in open arm activity (duration and/or entries) reflects anti-anxiety behavior.
The Morris water maze (MWM) test was conducted to assess the spatial learning and memory. The maze was filled with water and divided into 4 quadrants with a platform placed in one quadrant. The mice were trained to find the hidden platform for 6 consecutive days, and underwent […] training trials (once per quadrant) per day from 14:00 to 20:00 pm. In each training trial, the mouse started from one of four quadrants facing the wall of the pool and the trial ended when the animal climbed on the platform. […] The spatial memory was tested 1 d after the last training by removed the platform. The longer a mouse stayed in the previous platform-located quadrant, the better it scored the spatial memory. A video camera, fixed to the ceiling 1.5 m from the water surface, was used to record the swimming path and the time for mice to find the platform (latency) or to pass through the previous platform-located quadrant each day. The camera was connected to a digital-tracking device attached to an IBM computer (Armonk, NY).
For fear conditioning (FC) test, the mice were placed into a square chamber with a grid floor. On the first day (day 1), each mouse was habituated to the chamber for 3 min, and then a foot shock (0.9 mA, 3 s) was delivered. Three sequential foot shocks at 3 min intervals were applied. Then the mice were returned to their home cages. On the next day (day 2), the mice were exposed to the same chamber without any stimulus for 3 min. The contextual conditioning was assessed by recording freezing behavior during the 3 min exposure. Freezing time during the 3 min was recorded for assessment of memory.
Golgi staining was performed by using a Rapid GolgiStain Kit (FD neurotechnologies, PK401) according to the manufacturer's instructions. Briefly, the animals were sacrificed and perfused for 5 min with PBS. All procedures were performed under dark condition. Brains were dissected out and immersed in impregnation solution (equal volumes of Solutions A and B, containing mercuric chloride, potassium dichromate, and potassium chromate, mixed for 24 h in advance), and stored at room temperature. Impregnation solution was replaced after 24 h. After 4 weeks, brains were transferred to Solution C and stored at 4 °C for 72 h, with the solution replaced after 24 h. […]

CC(=O)N1CCCN(c2nc(NCCc3cccs3)nc(N(C)CC(=O)NCCOCCOCCOCC(=O)N[C@H](C(=O)N3C[C@H](O)C[C@H]3C(=O)NCc3ccc(-c4scnc4C)cc3)C(C)(C)C)n2)CC1 [C004019]
duration time in the open arm, elevated plus maze (EPM): no significant changes were detected | fear condition (FC) test, freezing index: improved freezing index | free movement in open field (OF) test: no significant changes were detected | novel object recognition (NOR) test: increased time exploring new object | neurite arborization and spine density in hippocampal DG (Golgi-cox staining and Sholl analysis): significantly increased | Morris water maze (MWM) test, latency (learning trial and probe trial): decreased latency to find the platform
